Data from US20130165368A1, “ANTIMICROBIAL COMPOUNDS” (priority 2010, published 2013).
Values after ≈ are worked out from the molar mass of the structure shown. Where two headings read alike, the source gives them in different places.

Key:
Format in all cases: cell-based
MRSA EMRSA 15 21698/98 = test: MIC agar dilution, MRSA strain 41; conditions: Staphylococcus aureus
Description: (§1) Molar equivalent concentrations were used to allow comparison between compounds of differing molecular mass. Due to weighing difficulties, any compound in solid form was melted in a water bath prior to dilution. To make ten-times strength concentrations, which takes into account agar dilution, 0.0352 mmol of each compound was weighed into plastic universal bottles and 4 mL of sterile distilled water (SDW) was added. To produce a homogenous emulsion the universals were vortexed; once achieved the emulsions were serial diluted by adding 2 mL to 2 mL of SDW.
(§2) For every 100 mL of Isosensitest agar (IST) (CM0471; Oxoid, Basingstoke, England), 3.1 g of the IST powder was added to 100 mL SDW (as per manufacturer's instructions) and sterilised for 15 minutes at 121° C. Once sterilised, the molten agar was cooled to 50° C. in a water-bath. Subsequently 4.8 g of CCEY powder (BC2160; Bioconnections, Wetherby, England), also known as Brazier's medium, was added to 100 mL SDW for every 100 mL of agar needed. This was then sterilised for 15 minutes at 121° C. Once sterilised the molten agar was cooled to 50° C. in a water-bath and 4 mL of egg-yolk emulsion (S2073; TCS Biosciences Ltd, Buckingham, United Kingdom) and 1 mL of lysed defibrinated horse blood (HB035; TCS Biosciences Ltd, Buckingham, United Kingdom) were also added for every 100 mL needed. Horse blood lysis is achieved by dilution to half concentration with SDW; when fully lysed the mixture will turn dark red in colour.
(§3) 18 mL agar was added to each universal and then poured into sterile Petri dishes. This step creates a 1/10 dilution resulting in agar plates of the required strength. Control plates for each set of strains were created by adding 18 mL of agar to 2 mL of SDW.
(§4) Suspensions of each bacterial species were prepared with a density equal to that of a 0.5 McFarland standard using a densitometer. All suspensions were made using sterile distilled water and fresh 18-20 hour cultures. As a 0.5 McFarland standard contains 1.5×10^8 CFU/mL and the multipoint inoculators applies 1 μL spots of liquid, each bacterial suspension was diluted 1/15 (20 μL suspension to 280 μL sterile distilled water).
(§5) Bacterial suspensions were prepared from fresh 18-24 hour cultures as previously described. 1 μL of each strain was inoculated onto all 100 agar plates containing a different chemical concentration and the 2 control plates. This was done using a multipoint inoculator which inoculates 20 strains per plate. All plates were incubated for 22 hours at 37° C. in aerobic conditions.
(§6) Each plate was examined for bacterial growth after 22 and 48 hours, with each being incubated in between examinations. A positive result was recorded as growth of ≧10 colonies. A negative result was recorded as growth of <10 colonies as this is equivalent to 99.9% inhibition. The lowest concentration of chemical that inhibited growth was recorded as the MIC. The results are recorded in Table IV below, where the numbers are quoted in mmol/L.
(§7) Given the positive performance of the ethoxylates of lauryl alcohol in reducing the MIC for a number of the micro-organisms tested, further MIC testing of Laureth-1 [C12E1] through to Laureth-8 [C12E8] was conducted on each of the following: • 10 strains of vancomycin-resistant enterococci (VRE)—listed in Table V below; and • 20 strains of methicillin-resistant Staphylococcus aureus (MRSA)—listed in Table VI.
(§8) The alkanol, alkanol derivatives, agar plates, and inocula were all prepared in the same way as described above.
(§9) The plates were examined in the same manner as described above and the results are recorded in Table VII below, where the numbers are quoted in mmol/L.

MRSA EMRSA 16 00036/95 = test: MIC agar dilution, MRSA strain 46; conditions: Staphylococcus aureus
Description: as §1, §2, §3, §4, §5, §6, §7, §8, §9

MRSA EMRSA 16 21354/95 = test: MIC agar dilution, MRSA strain 44; conditions: Staphylococcus aureus
Description: as §1, §2, §3, §4, §5, §6, §7, §8, §9

Enterococcus faecalis = test: MIC agar dilution, micro-organism 17 (775); conditions: Enterococcus faecalis 775, read-out: MIC
Summary of the method: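 Agar dilution in Isosensitest/CCEY agar with egg yolk and lysed horse blood; compounds as aqueous emulsions (myristyl and lauryl alcohol with 1-methyl-2-pyrrolidone and Tween 20). 1 µL spots of 1/15-diluted 0.5 McFarland suspensions, 37 °C aerobic, read at 22 and 48 h; MIC (mmol/L) is lowest concentration giving <10 colonies.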

[1] = system: Gram negative bacteria, Gram positive bacteria and pathogenic yeasts; test: MIC agar dilution, summary statements over the micro-organisms tested (Tables I, IX); conditions: read-out: MIC
Text: For a better understanding, the present invention will now be more particularly described, by way of non-limiting example only, as follows. The micro-organisms shown in Table I overleaf were acquired from the National Collection of Type Cultures (NCTC), Colindale, United Kingdom; the American Type Culture Collection (ATCC), Manassas, United States and the National Collection of Pathogenic Fungi (NCPF), Colindale, United Kingdom. They include Gram negative bacteria, Gram positive bacteria and pathogenic yeasts.
Throughout the period of testing the microbial strains were subcultured and incubated for 18-20 hours at 37° C. on a weekly basis. Horse blood agar plates were used to sustain the micro-organisms both prior to and throughout testing. The alkoxylated alkanols listed in Table II below were obtained (these are obtainable from Sigma-Aldrich Company Ltd, Dorset, England), each having a GC purity of at least 97%.
as §1
Myristyl alcohol and lauryl alcohol were re-weighed and dissolved in 25 μL of the polar solvent 1-methyl-2-pyrrolidone (M6762; Sigma-Aldrich) in sterile glass universals due to an inability to achieve an even suspension. To maintain an even emulsion in the presence of SDW 37.5 μL of the non-ionic detergent Tween 20 (P1379, Sigma-Aldrich) was also added. 3.9375 mL of SDW was added to these, to create a 4 mL volume; they were vortexed and diluted as before.
as §2, §3, §4
as §5, with “conditions. […]” for “conditions.”

[2] = system: Enterococcus faecium (VRE) MB310; test: MIC agar dilution, VRE strain 29
Description: as §1, §2, §3, §4, §5, §6, §7, §8, §9

MRSA EMRSA 16 07924/95 = test: MIC agar dilution, MRSA strain 49; conditions: Staphylococcus aureus
Description: as §1, §2, §3, §4, §5, §6, §7, §8, §9

[3] = system: Enterococcus faecium (VRE) MB 3137; test: MIC agar dilution, VRE strain 26
Description: as §1, §2, §3, §4, §5, §6, §7, §8, §9

MRSA NCTC 11939 = test: MIC agar dilution, MRSA strain 50; conditions: Staphylococcus aureus, MRSA strain 50 NCTC 11939
Description: as §1, §2, §3, §4, §5, §6, §7, §8, §9

SMILES | MIC (MRSA EMRSA 15 21698/98; 22 hrs) | MIC (MRSA EMRSA 15 21698/98; 48 hrs) | MIC (MRSA EMRSA 16 00036/95; 22 hrs) | MIC (MRSA EMRSA 16 00036/95; 48 hrs) | MIC (MRSA EMRSA 16 21354/95; 22 hrs) | MIC (MRSA EMRSA 16 21354/95; 48 hrs) | MIC (Enterococcus faecalis; 22 hrs) | MIC (Enterococcus faecalis; 48 hrs) | MIC [1] | MIC ([2]; 22 hrs) | MIC ([2]; 48 hrs) | MIC (MRSA EMRSA 16 07924/95; 22 hrs) | MIC (MRSA EMRSA 16 07924/95; 48 hrs) | MIC ([3]; 22 hrs) | MIC ([3]; 48 hrs) | MIC (MRSA NCTC 11939; 22 hrs) | MIC (MRSA NCTC 11939; 48 hrs)
CCCCCCCCCCCCOCCOCCOCCOCCO [L4, Tetraethylene Glycol Monododecyl Ether] | 55 µM (≈ 19.9 µg/mL) | 55 µM (≈ 19.9 µg/mL) | 55 µM (≈ 19.9 µg/mL) | 55 µM (≈ 19.9 µg/mL) | 55 µM (≈ 19.9 µg/mL) | 55 µM (≈ 19.9 µg/mL) | 110 µM (≈ 39.9 µg/mL) | 110 µM (≈ 39.9 µg/mL) | ~110 µM (≈ 39.9 µg/mL) | 110 µM (≈ 39.9 µg/mL) | 110 µM (≈ 39.9 µg/mL) | 55 µM (≈ 19.9 µg/mL) | 55 µM (≈ 19.9 µg/mL) | 880 µM (≈ 319 µg/mL) | > 880 µM | 55 µM (≈ 19.9 µg/mL) | 55 µM (≈ 19.9 µg/mL)
CCCCCCCCCCCCOCCOCCOCCOCCOCCO [L5, Pentaethylene Glycol Monododecyl Ether] | 110 µM (≈ 44.7 µg/mL) | 110 µM (≈ 44.7 µg/mL) | 110 µM (≈ 44.7 µg/mL) | 110 µM (≈ 44.7 µg/mL) | 110 µM (≈ 44.7 µg/mL) | 110 µM (≈ 44.7 µg/mL) | 110 µM (≈ 44.7 µg/mL) | 110 µM (≈ 44.7 µg/mL) | ~110 µM (≈ 44.7 µg/mL) | 110 µM (≈ 44.7 µg/mL) | 110 µM (≈ 44.7 µg/mL) | 110 µM (≈ 44.7 µg/mL) | 110 µM (≈ 44.7 µg/mL) | 440 µM (≈ 179 µg/mL) | > 880 µM | 110 µM (≈ 44.7 µg/mL) | 110 µM (≈ 44.7 µg/mL)
CCCCCCCCCCCCOCCOCCOCCOCCOCCOCCO [L6, Hexaethylene Glycol Monododecyl Ether] | 110 µM (≈ 49.6 µg/mL) | 110 µM (≈ 49.6 µg/mL) | 220 µM (≈ 99.1 µg/mL) | 440 µM (≈ 198 µg/mL) | 220 µM (≈ 99.1 µg/mL) | 440 µM (≈ 198 µg/mL) | 110 µM (≈ 49.6 µg/mL) | 110 µM (≈ 49.6 µg/mL) | ~110 µM (≈ 49.6 µg/mL) | 220 µM (≈ 99.1 µg/mL) | 220 µM (≈ 99.1 µg/mL) | 110 µM (≈ 49.6 µg/mL) | 110 µM (≈ 49.6 µg/mL) | 880 µM (≈ 397 µg/mL) | > 880 µM | 110 µM (≈ 49.6 µg/mL) | 110 µM (≈ 49.6 µg/mL)
CCCCCCCCCCCCOCCOCCOCCOCCOCCOCCOCCO [L7, Heptaethylene Glycol Monododecyl Ether] | 440 µM (≈ 218 µg/mL) | > 440 µM | 440 µM (≈ 218 µg/mL) | > 440 µM | > 440 µM | > 440 µM | 110 µM (≈ 54.4 µg/mL) | 110 µM (≈ 54.4 µg/mL) | – | 110 µM (≈ 54.4 µg/mL) | 110 µM (≈ 54.4 µg/mL) | > 440 µM | > 440 µM | > 880 µM | > 880 µM | 110 µM (≈ 54.4 µg/mL) | 110 µM (≈ 54.4 µg/mL)
CCCCCCCCCCCCOCCOCCOCCOCCOCCOCCOCCOCCO [L8, Octaethylene Glycol Monododecyl Ether] | > 440 µM | > 440 µM | > 440 µM | > 440 µM | > 440 µM | > 440 µM | 110 µM (≈ 59.3 µg/mL) | 110 µM (≈ 59.3 µg/mL) | – | > 880 µM | > 880 µM | > 440 µM | > 440 µM | > 880 µM | > 880 µM | 220 µM (≈ 119 µg/mL) | 220 µM (≈ 119 µg/mL)
